Where two headings read alike, the source gives them in different places.
Tests used:
[1] = molecular target: GST-tagged PTPN2 protein (Homo sapiens (Human), UniProt P17706); experiment: Primary assay of PTPN2 enzymatic activity inhibition (DiFMUP fluorescence); format: biochemical; conditions: PTPN2 0.004 ng/μL, DiFUMP substrate 2 μM, 60 min at rt
Experimental: Compound activity was determined using GST-tagged PTPN2 protein (Cat #31592, ActiveMotif) (SEQ ID NO: 1) in an in vitro enzymatic reaction. The enzymatic reaction was carried out in assay buffer (50 mM HEPES Na salt pH 7.2-7.4, 2 mM EDTA, 100 mM NaCl, 52 ng/μL BSA, and 6 mM DTT). The compounds were dispensed on a 384 well Diamond Well Plate (Axigen, Cat #P-384-120SQ-C-S) using the Biomek FX liquid handling system at 100× solutions of compounds in DMSO. 2×PTPN2 (final concentration 0.004 ng/μL) was prepared in 1× Assay buffer and 25 μL of mixture per well was added into Reaction plate (Optiplate, black, Perkin Elmer, Cat #6007270). Add 25 μL of 1× buffer to Ctrl- (Substrate w/o PTPN2) wells followed by centrifugation at 100 g for 1 min. Next step the Compounds were added to Reaction plate using Biomek station via following steps: 3 μl of 100× compounds (in DMSO) were mixed with 27 μL of Assay Buffer, then 5 μL of this mixture was added to Reaction plate with 25 μL of PTPN2 Mix. Plates were centrifuged for 1 min at 100 g and incubated for another 10 min at rt. Finally, 20 μL of 2.5× Substrate (DiFUMP, Invitrogen™ Cat #D6567) mix was added into appropriate wells of Reaction plate to the final concentration of 2 μM, plate was centrifuged at 100 g for 1 min followed by incubation at rt for 60 min, and the Fluorescence Intensity was measured using a Microplate Reader (ClarioStar Plus, excitation 360 nm, emission 450 nm). The % inhibition was then used to calculate the Ki values. The Ki values are shown in Table A, wherein “A” corresponds to Ki<1.0 nm, “B” corresponds to 1.0 nm≤Ki<5.0 nm, “C” corresponds to 5.0 nm≤Ki<10.0 nm, “D” corresponds to 10.0 nm≤Ki<50.0 nm, and “E” corresponds to 50.0 nm≤Ki<100.0 nm, and “F” corresponds to 100.0 nm≤Ki.

[2] = Pharmacokinetic (PK) study in mice, oral bioavailability; format: in vivo, Male CD-1 mice; conditions: 10 mg/kg PO vs 2 mg/kg IV, 10% Ethanol, 30% PEG-400, 60% Phosal-50PG, form Suspension
Experimental: Pharmacokinetic (PK) study in mice: Male CD-1 mice obtained from Charles River GmbH (Sulzfeld, Germany) with body weight ranging between 30 g to 40 g were used in the PK studies. Group of 12 mice were given a 2 mg/kg intravenous bolus (IV) dose of test article as a solution in 20% HP-beta-CD, and another group of 9 mice were given a 10 mg/kg oral (PO) dose of test article as a solution or suspension in [10% ethanol, 30% PEG-400 and 60% Phosal-50PG]. Blood samples (˜200 μL per time point) were collected twice from each animal—from orbital sinus and by cardiopuncture at 0.083, 0.25, 0.5, 1, 2, 4, 8 and 24 hours after IV administration, and at 0.5, 1, 2, 4, 8 and 24 hours after PO administration, 3 mice/time point. Blood samples were collected in tubes with Na-EDTA 0.5 M solution (1:10) and centrifuged for 10 min at 10,000 rpm at 2 to 8° C. to harvest plasma. Plasma samples were stored at −80° C. until LC/MS/MS analysis. Concentration in each plasma sample was determined by a non-validated LC/MS/MS. Data is acquired using multiple reaction monitoring (MRM) with specific transitions monitored for each compound. Pharmacokinetic Analysis: PK parameters were calculated by non-compartmental methods as described in Gibaldi and Perrier (Gibaldi and Perrier, 1982) using Phoenix® WinNonlin® version 6.3 (Certara L.P.). Following PO administration, percent bioavailability (Fabs) was determined by dividing the dose normalized mean area under the plasma concentration-time curve, extrapolated to the last time point (AUClast) obtained following PO dose by the mean dose normalized AUC of the animals dosed by IV injection. All PK parameters are presented as mean±standard deviation (SD). PK studies were conducted in mice for exemplary compounds of Formula (I). The percent bioavailability (Fabs) values determined are listed in Table C for certain compounds, together with the dosage, vehicle and form used in the studies.

[3] = tested on: B16F10 mouse melanoma cells; experiment: Tumor cells B16F10 cellular growth IFNγ-induced inhibition assay (CellTiter-Glo); format: cell-based; conditions: for IC50: B16-F10, 72 h, 3 days of incubation; for inhibition at 100 µM: B16-F10, B16F10, 100 μM compound
Experimental: B16F10 mouse melanoma cells (ATCC Cat #CRL-6475) were seeded at a density of 500 cells per well in a 384-well clear bottom plate (Corning Cat #3712, Corning, N.Y.) in 40 μL total volume of DMEM+10% FBS (PanEco Cat #C420, Russia and Sigma Cat #F4135, St. Louis, MO). Cells were allowed to adhere overnight at 37° C., 5% CO2. On the following day, 250× solutions of compounds in DMSO (Sigma Cat #D2650) were prepared into Cmpnds plate (Diamond Well Plate, Axigen, Cat #P-384-120SQ-C-S) (final concentration of 1×) and DMSO only controls were included. Dilution Plate (Diamond Well Plate (Axigen, Cat #P-384-120SQ-C-S) was prepared by adding 49 μL of culture medium per well: half of the plate with culture medium only, half with culture medium+IFNγ (5 ng/ml). A 1 μL aliquot of 250× compounds (Cmpnds plate) was added to 49 μL of culture medium (Dilution plate), then a 10 μL aliquot of the mixture was transferred to Reaction plate with 40 μL of cells followed by centrifugation at 240 g for 1 min. After 3 days of incubation, 10 μL of CellTiter-Glo (Promega) was added to the cells, plates were centrifuged at 240 g for 1 min, and luminescence signal was measured. For each compound, the percent growth inhibition at every compound dose level was calculated relative to the “DMSO/with IFNγ” control and used to determine the IC50.

Chain of GST-tagged PTPN2 protein (P17706 whole entry): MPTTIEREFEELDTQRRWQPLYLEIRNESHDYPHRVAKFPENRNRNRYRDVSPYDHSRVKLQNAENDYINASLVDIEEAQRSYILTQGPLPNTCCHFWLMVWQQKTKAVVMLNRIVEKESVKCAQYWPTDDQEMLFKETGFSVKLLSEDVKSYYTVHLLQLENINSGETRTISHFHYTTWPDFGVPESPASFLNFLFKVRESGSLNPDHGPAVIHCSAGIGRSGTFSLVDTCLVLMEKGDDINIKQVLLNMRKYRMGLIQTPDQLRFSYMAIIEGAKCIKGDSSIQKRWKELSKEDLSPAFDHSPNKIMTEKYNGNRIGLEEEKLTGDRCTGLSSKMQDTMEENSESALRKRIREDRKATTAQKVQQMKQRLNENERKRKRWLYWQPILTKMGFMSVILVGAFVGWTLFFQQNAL

- Ki [1]: 1 to 5 nM
- Fabs, % [2]: 2.7%
- IC50 ([3]; B16F10, no IFNγ, read-out: IC50 no IFNγ): > 100 µM
- IC50 ([3]; B16F10, with IFNγ, read-out: IC50 + IFNγ): < 5 µM
SMILES: Cc1cc(O)nc(Nc2cc(O)c(N3CC(=O)NS3(=O)=O)c(F)c2)n1 [Compound 10, 5-[2-fluoro-6-hydroxy-4-[(4-hydroxy-6-methyl-pyrimidin-2-yl)amino]phenyl]-1,1-dioxo-1,2,5-thiadiazolidin-3-one]
- inhibition at 100 µM ([3]; no IFNγ, read-out: % Growth Inhibition at 100 μM no IFNγ): 10 to 50%
- inhibition at 100 µM ([3]; with IFNγ, read-out: % Growth Inhibition at 100 μM + IFNγ): 75 to 100%

Source: patent publication US20250313554A1, “PTPN2 INHIBITORS” (Ness Therapeutics, Inc., priority 2022, published 2025)
